Measurements reported in US10624948B2, “Use of cell-permeable peptide inhibitors of the JNK signal transduction pathway for the treatment of various diseases” (Xigen Inflammation Ltd., priority 2013, dated 2020).

Experiments:
[1] = tested on: Sprague-Dawley rats, STZ diabetic nephropathy; assay: Rat model of diabetic nephropathy (STZ, high fat diet); type: in vivo; settings: Losartan 25 mg/kg po daily
Experimental: Losartan has been used as a positive control. Seventy-four male Sprague-Dawley rats (200-250 g; including 4 spare animals) from Charles River (Margate, Kent) were used. Rats were housed in pairs in polypropylene cages with free access to a high fat diet (D12492 60% of kcal derived from fat) and tap water at all times. The diet has been purchased from Research Diets, New Jersey, USA. All animals have been maintained at 21±4° C. and 55±20% humidity on a normal light (lights on: 07:00-19:00). […] About 40 animals have been assigned to Cohort A and the remaining 30 to Cohort B, balanced as far as possible for body weight, plasma glucose and food and water intake. […] In all groups, food and water intake have been determined twice weekly (on the day of iv dosing and on water refill days. Blood glucose has been determined monthly. Samples were collected as detailed previously by glucometer (One Touch Ultra2). Blood samples have been taken in the freely fed state (beginning at approx. 09:00). Animals have been dosed immediately afterwards by the respective route to a timed schedule. Subsequent to dosing, each animal has been placed in a metabolism cage with free access to food and water for a 24 h period. To reduce evaporation, the glass urine collectors have been placed in a polystyrene container (Sca-online, UK) which was filled with ice. […] Food consumed and water drunk has also been calculated. […]

[2] = tested on: post-operative intraocular inflammation; settings: Dexamethasone (N = 50)
Experimental: The objectives of the SDD-1002-035 study were to evaluate the efficacy and safety of a single sub-conjunctival injection of XG-102 90 or 900 μg administered within maximally 3 hours after the end of the surgical procedure compared to dexamethasone eye drops administered 4 times/day for 21 days in post-operative intraocular inflammation.
In accordance with this trial's primary objective, the primary outcome was evaluated by the mean anterior chamber cells grade at day 28 post-administration of the sub-conjunctival injection of study treatment comparing XG-102 900 μg with dexamethasone eye drops.
The present trial was a randomized (1:1:1), controlled, double-blind, multicenter non-inferiority clinical trial with three parallel groups of equal size. Randomization, which was blocked by center, was performed using a web-based, secure, randomization system. […]
The primary objective was evaluated by the mean anterior chamber cells grade at day 28 post-administration of the sub-conjunctival administration of study treatment. […]

[3] = Phase II trial, safety and tolerability (adverse events)
Experimental: The criteria for evaluation of safety were:
An AE is therefore any unfavorable and unintended sign, symptom or disease temporally associated with the use of a medicinal product, whether or not considered related to the medicinal product.
Patients were analyzed as treated, i.e. according to the treatment which they received. The safety set was the primary analysis set for the safety analysis.
The present study was a double-blind study. All patients who were randomized and for whom the sub-conjunctival injection was started are included in the safety analysis by dose group. […] If the study treatment eye drops were stopped prematurely (i.e. before day 21), the patients concerned continued follow-up until day 28, in accordance with the study protocol.
Investigators assessed (in a blinded manner) the relationship of each reported AE to any of the study treatments. An event was considered to be related to study treatment if the Investigator ticked either ‘possible’ or ‘probable’ as the reply to this question.

SMILES | body weight [1] | Premature withdrawal of study tx eye drops, # patients (%) [2] | Adverse events which led to an interruption of study treatment ([3]; Dexamethasone dose group) | patients with Intraocular pressure increased ([3]; dexamethasone) | percentage of patients who experienced an AE within 24 hours ([3]; dexamethasone group)
CCCCc1nc(Cl)c(CO)n1Cc1ccc(-c2ccccc2-c2nn[nH]n2)cc1 [Losartan] | significantly lower | – | – | – | –
C[C@@H]1C[C@H]2[C@@H]3CCC4=CC(=O)C=C[C@]4(C)[C@@]3(F)[C@@H](O)C[C@]2(C)[C@@]1(O)C(=O)CO [dexamethasone, reference compound] | – | 3 (6.0%) | 3 (5.5%) number of events (%) | 14% | 30%
